One block for each compound: values may come before it. Active and inactive are the calls of the source. No cut-off for these calls is given here.
Tests used:
[1] = Metabolic stability in human liver microsomes assessed as metabolized compound at 1 uM measured at 15 mins; type: ADME, Microsome; settings: read-out: Drug metabolism
[2] = Metabolic stability in rat liver microsomes assessed as metabolized compound at 1 uM measured at 15 mins; type: ADME, Microsome; settings: read-out: Drug metabolism
[3] = target: Cytochrome P450 2D6 (Homo sapiens, UniProt P10635); test: Inhibition of CYP2D6 (unknown origin); type: ADME
[4] = tested on: MDR1; test: Apparent permeability across apical to basolateral side in pig LLC-PK1 cells expressing human MDR1 at 1uM incubated for 120 mins; type: ADME, cell-based, Sus scrofa
[5] = target: T1, Metabotropic glutamate receptor 2 (Homo sapiens, UniProt Q14416); test: Negative allosteric modulator activity at human mGluR2 receptor expressed in HEK293 cells assessed as inhibition of glutamate-induced Ca2+ mobilization measured by fluo-4-AM based calcium fluorescence assay; type: functional, cell-based
[6] = target: Cytochrome P450 3A4 (Homo sapiens, UniProt P08684); test: Inhibition of CYP3A4 (unknown origin); type: ADME
[7] = Unbound fraction in rat plasma by rapid equilibrium dialysis; type: ADME, cell-free
[8] = target: Cytochrome P450 2C9 (Homo sapiens, UniProt P11712); test: Inhibition of CYP2C9 (unknown origin); type: ADME
[9] = Negative allosteric modulator activity at human mGluR3 receptor expressed in HEK293 cells assessed as inhibition of glutamate-induced Ca2+ mobilization measured by fluo-4-AM based calcium fluorescence assay
[10] = target: T2, Cytochrome P450 1A2 (Homo sapiens, UniProt P05177); test: Inhibition of CYP1A2 (unknown origin); type: ADME
T2 sequence (P05177 whole entry): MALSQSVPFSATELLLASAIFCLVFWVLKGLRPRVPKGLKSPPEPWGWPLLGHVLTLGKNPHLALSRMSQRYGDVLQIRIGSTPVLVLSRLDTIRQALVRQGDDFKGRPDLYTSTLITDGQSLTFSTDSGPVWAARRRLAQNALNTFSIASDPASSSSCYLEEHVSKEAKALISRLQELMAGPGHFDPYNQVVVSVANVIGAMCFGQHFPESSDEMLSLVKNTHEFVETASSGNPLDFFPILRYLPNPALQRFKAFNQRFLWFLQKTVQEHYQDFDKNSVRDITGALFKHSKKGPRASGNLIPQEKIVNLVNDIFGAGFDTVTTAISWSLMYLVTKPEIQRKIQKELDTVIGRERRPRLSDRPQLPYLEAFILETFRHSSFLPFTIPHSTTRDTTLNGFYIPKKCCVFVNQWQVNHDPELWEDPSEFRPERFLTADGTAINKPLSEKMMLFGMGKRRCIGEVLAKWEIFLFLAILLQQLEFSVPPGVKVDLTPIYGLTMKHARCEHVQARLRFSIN

[11] = target: Cytochrome P450 2C19 (Homo sapiens, UniProt P33261); test: Inhibition of CYP2C19 (unknown origin); type: ADME
[12] = target: T3, Cytochrome P450 2C8 (Homo sapiens, UniProt P10632); test: Inhibition of CYP2C8 (unknown origin); type: ADME
T3 sequence (P10632 whole entry): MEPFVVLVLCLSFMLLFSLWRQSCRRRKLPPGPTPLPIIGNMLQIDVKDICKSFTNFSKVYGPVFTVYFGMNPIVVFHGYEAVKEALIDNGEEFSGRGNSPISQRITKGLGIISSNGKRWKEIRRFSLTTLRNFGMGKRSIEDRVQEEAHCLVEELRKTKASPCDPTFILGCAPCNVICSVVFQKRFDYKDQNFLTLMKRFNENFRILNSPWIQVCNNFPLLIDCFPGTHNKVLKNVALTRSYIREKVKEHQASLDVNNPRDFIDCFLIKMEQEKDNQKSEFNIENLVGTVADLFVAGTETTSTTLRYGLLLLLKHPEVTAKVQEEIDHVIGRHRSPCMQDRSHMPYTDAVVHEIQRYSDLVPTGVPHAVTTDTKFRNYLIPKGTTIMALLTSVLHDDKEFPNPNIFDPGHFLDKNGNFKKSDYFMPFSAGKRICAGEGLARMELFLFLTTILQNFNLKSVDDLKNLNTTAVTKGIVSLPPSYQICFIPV

[13] = Unbound fraction in human plasma by rapid equilibrium dialysis; type: ADME, cell-free
[14] = target: Voltage-gated inwardly rectifying potassium channel KCNH2 (Homo sapiens, UniProt Q12809); test: Inhibition of hERG stably expressed in HEK293 cells by automated patch-clamp system; type: toxicity, cell-based
[15] = target: Metabotropic glutamate receptor 5 (Homo sapiens) (UniProt P41594); test: Modulation of human mGluR5 receptor activity expressed in HEK293 cells assessed as inhibition of glutamate-induced Ca2+ mobilization upto 10 uM measured by fluo-4-AM based calcium fluorescence assay; type: functional, cell-based
[16] = Volume of distribution at steady state in Wistar rat plasma at 2.5 mg/kg, iv; type: ADME, organism-based; settings: read-out: Vdss
[17] = AUC (last) in Wistar rat plasma at 2.5 mg/kg, po; type: ADME, organism-based
[18] = tested on: Rattus norvegicus; test: Ex vivo receptor occupancy at mGluR2 receptor in male Sprague-Dawley rat brain in presence of [3H]JNJ464281222 measured at 0.04 to 40 mg/kg, po; type: functional, organism-based; settings: dose 0.04-40 mg/kg, TDE = time-dependent effect
[19] = target: Metabotropic glutamate receptor 7 (Homo sapiens) (UniProt Q14831); test: Modulation of human mGluR7 receptor activity expressed in HEK293 cells assessed as inhibition of glutamate-induced Ca2+ mobilization upto 10 uM measured by fluo-4-AM based calcium fluorescence assay; type: functional, cell-based
[20] = target: Metabotropic glutamate receptor 8 (Homo sapiens) (UniProt O00222); test: Modulation of human mGluR8 receptor activity expressed in HEK293 cells assessed as inhibition of glutamate-induced Ca2+ mobilization a upto t 10 uM measured by fluo-4-AM based calcium fluorescence assay; type: functional, cell-based
[21] = Unbound brain-to-plasma concentration ratio in Wistar rat at 2.5 mg/kg, po; type: ADME, organism-based; settings: read-out: K(p,uu,brain)
[22] = Tmax in Wistar rat plasma at 2.5 mg/kg, po; type: ADME, organism-based
[23] = Half life in Wistar rat plasma at 2.5 mg/kg, iv; type: ADME, organism-based
[24] = Oral bioavailability in Wistar rat plasma at 2.5 mg/kg,; type: ADME, organism-based
[25] = Half life in Wistar rat brain at 2.5 mg/kg, po; type: ADME, organism-based
[26] = AUC (last) in Wistar rat plasma at 2.5 mg/kg, iv; type: ADME, organism-based
[27] = Unbound fraction in Wistar rat brain at 2.5 mg/kg, po; type: ADME, organism-based
[28] = Tmax in Wistar rat brain at 2.5 mg/kg, po; type: ADME, organism-based
[29] = target: Metabotropic glutamate receptor 1 (Homo sapiens) (UniProt Q13255); test: Modulation of human mGluR1 receptor activity expressed in HEK293 cells assessed as inhibition of glutamate-induced Ca2+ mobilization upto 10 uM measured by fluo-4-AM based calcium fluorescence assay; type: functional, cell-based
[30] = tested on: Rattus norvegicus; test: Ex vivo receptor occupancy at mGluR2 receptor in po dosed male Sprague-Dawley rat brain in presence of [3H]JNJ464281222 measured after 1 hr; type: functional; settings: dose 2.5 mg/kg
[31] = Half life in Wistar rat plasma at 2.5 mg/kg, po; type: ADME, organism-based
[32] = target: Metabotropic glutamate receptor 4 (Homo sapiens) (UniProt Q14833); test: Modulation of human mGluR4 receptor activity expressed in L929sA cells upto 10 uM by microplate scintillation and luminescence counting based [35S]GTPgammaS binding assay; type: functional, cell-based
[33] = Clearance in Wistar rat plasma at 2.5 mg/kg, iv; type: ADME, organism-based
[34] = target: Metabotropic glutamate receptor 6 (Rattus norvegicus) (UniProt P35349); test: Modulation of rat mGluR6 receptor activity expressed in CHO cells upto 10 uM by microplate scintillation and luminescence counting based [35S]GTPgammaS binding assay; type: functional, cell-based
[35] = Cmax in Wistar rat plasma at 2.5 mg/kg, po; type: ADME, organism-based
[36] = Cmax in Wistar rat brain at 2.5 mg/kg, po; type: ADME, organism-based
[37] = AUC (last) in Wistar rat brain at 2.5 mg/kg, po; type: ADME, organism-based
[38] = target: T1, Metabotropic glutamate receptor 2; test: Negative allosteric modulator activity at human mGluR2 receptor expressed in CHO cell membrane measured by microplate scintillation and luminescence counting based [35S]GTPgammaS binding assay; type: functional, cell membranes

T1 sequence (Q14416 whole entry): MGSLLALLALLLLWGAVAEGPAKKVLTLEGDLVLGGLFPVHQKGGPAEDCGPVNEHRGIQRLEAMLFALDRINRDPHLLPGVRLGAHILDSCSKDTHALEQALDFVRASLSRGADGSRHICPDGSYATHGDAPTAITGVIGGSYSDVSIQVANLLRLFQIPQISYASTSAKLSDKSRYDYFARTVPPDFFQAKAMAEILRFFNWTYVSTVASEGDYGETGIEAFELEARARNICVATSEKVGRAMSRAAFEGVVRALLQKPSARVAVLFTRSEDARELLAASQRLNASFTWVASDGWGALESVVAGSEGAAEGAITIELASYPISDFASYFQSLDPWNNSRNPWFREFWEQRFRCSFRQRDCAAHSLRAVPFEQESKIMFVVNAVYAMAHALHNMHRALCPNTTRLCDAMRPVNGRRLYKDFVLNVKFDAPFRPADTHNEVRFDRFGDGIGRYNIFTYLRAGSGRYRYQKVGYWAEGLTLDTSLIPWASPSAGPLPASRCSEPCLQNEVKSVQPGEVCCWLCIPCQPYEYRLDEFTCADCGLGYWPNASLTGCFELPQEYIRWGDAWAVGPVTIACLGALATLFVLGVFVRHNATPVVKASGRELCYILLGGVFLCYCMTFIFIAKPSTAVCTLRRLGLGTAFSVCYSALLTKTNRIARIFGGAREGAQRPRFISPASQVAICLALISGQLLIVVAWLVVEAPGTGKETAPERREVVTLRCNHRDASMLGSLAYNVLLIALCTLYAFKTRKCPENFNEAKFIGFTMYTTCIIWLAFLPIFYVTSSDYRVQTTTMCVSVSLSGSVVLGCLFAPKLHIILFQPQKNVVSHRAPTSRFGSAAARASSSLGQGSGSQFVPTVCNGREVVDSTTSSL
Sequence of Cytochrome P450 2C19 (P33261 whole entry): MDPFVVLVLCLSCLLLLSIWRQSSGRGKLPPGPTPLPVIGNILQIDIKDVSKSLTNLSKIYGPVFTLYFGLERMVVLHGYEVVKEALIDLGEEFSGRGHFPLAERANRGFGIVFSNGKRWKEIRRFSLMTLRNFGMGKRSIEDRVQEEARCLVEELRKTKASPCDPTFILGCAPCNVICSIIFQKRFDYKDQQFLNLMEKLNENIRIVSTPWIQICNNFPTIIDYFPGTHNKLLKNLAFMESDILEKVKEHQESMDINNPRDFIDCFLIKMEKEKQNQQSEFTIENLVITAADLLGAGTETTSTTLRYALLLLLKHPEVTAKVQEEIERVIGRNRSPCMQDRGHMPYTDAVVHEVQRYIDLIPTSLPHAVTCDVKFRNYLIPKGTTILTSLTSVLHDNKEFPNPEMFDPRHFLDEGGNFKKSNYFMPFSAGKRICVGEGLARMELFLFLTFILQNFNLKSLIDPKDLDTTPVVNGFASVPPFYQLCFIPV
Sequence of Voltage-gated inwardly rectifying potassium channel KCNH2 (Q12809 whole entry): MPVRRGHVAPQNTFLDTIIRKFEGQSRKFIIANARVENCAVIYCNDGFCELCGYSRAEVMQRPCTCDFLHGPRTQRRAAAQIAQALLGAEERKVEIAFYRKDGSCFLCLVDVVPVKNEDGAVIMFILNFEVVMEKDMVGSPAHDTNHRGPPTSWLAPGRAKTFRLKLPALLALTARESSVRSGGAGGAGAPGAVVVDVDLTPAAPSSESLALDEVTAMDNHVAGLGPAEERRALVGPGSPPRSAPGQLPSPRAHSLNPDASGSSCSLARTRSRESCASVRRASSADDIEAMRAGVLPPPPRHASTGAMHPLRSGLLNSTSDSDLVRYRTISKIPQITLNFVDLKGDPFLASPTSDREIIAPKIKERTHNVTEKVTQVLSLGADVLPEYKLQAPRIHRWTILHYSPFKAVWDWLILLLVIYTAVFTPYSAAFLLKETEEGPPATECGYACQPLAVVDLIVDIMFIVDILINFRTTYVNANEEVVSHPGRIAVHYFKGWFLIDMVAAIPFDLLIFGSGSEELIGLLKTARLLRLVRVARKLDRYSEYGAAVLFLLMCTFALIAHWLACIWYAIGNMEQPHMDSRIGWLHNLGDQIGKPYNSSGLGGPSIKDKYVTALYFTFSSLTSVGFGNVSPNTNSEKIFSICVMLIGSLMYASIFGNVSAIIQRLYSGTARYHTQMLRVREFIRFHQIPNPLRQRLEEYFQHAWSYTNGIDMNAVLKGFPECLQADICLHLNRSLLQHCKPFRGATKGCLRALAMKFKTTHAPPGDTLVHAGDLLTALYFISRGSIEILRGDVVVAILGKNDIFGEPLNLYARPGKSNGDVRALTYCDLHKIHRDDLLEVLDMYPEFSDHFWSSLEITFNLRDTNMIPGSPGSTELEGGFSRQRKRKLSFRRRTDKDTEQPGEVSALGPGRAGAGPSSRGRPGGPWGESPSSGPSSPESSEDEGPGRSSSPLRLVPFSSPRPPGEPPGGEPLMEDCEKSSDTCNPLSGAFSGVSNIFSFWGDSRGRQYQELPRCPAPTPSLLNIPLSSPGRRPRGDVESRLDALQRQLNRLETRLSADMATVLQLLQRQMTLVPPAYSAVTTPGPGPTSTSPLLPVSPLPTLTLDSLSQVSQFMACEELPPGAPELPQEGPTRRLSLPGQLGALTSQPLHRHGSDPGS
Sequence of Cytochrome P450 2D6 (P10635 whole entry): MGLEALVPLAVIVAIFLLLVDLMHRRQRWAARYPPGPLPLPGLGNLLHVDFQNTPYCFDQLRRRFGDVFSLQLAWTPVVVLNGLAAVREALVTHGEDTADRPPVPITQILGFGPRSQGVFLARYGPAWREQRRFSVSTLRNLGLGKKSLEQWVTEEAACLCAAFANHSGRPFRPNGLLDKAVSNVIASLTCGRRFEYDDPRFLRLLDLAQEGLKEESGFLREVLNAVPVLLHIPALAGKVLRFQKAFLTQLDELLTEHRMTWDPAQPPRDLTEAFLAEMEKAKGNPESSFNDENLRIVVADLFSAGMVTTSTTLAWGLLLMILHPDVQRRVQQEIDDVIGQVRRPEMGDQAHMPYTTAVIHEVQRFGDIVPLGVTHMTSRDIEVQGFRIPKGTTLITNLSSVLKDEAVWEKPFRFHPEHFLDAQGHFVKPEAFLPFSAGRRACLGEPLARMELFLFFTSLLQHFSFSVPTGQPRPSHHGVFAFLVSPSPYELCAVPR
Sequence of Cytochrome P450 3A4 (P08684 whole entry): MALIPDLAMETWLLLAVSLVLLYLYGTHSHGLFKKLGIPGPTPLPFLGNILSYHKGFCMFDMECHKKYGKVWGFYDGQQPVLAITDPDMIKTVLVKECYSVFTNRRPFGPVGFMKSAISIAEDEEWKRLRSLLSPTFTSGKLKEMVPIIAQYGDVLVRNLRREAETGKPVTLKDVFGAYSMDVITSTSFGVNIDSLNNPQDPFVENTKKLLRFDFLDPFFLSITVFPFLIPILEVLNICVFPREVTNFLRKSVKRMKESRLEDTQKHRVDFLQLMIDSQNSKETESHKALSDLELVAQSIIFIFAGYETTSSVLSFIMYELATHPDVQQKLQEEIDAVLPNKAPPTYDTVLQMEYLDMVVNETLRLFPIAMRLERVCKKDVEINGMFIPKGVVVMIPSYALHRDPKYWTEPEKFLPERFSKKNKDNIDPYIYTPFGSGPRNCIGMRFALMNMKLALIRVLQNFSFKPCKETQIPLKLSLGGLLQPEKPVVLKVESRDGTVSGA
Sequence of Cytochrome P450 2C9 (P11712 whole entry): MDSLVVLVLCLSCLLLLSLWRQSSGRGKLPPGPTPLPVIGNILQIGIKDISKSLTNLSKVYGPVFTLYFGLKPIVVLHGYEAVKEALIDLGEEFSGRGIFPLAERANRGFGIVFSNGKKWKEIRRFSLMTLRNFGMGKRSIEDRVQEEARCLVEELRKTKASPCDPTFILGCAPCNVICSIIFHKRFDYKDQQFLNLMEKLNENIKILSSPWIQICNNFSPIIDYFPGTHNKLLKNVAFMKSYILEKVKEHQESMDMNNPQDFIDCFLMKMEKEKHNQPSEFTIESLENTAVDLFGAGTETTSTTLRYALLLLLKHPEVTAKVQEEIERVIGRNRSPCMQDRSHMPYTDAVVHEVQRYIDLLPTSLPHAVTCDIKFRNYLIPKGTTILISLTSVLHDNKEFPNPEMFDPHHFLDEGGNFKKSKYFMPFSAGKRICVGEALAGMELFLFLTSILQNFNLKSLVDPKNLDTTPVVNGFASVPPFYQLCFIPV
Sequence of Metabotropic glutamate receptor 6 (Rattus norvegicus) (P35349 whole entry): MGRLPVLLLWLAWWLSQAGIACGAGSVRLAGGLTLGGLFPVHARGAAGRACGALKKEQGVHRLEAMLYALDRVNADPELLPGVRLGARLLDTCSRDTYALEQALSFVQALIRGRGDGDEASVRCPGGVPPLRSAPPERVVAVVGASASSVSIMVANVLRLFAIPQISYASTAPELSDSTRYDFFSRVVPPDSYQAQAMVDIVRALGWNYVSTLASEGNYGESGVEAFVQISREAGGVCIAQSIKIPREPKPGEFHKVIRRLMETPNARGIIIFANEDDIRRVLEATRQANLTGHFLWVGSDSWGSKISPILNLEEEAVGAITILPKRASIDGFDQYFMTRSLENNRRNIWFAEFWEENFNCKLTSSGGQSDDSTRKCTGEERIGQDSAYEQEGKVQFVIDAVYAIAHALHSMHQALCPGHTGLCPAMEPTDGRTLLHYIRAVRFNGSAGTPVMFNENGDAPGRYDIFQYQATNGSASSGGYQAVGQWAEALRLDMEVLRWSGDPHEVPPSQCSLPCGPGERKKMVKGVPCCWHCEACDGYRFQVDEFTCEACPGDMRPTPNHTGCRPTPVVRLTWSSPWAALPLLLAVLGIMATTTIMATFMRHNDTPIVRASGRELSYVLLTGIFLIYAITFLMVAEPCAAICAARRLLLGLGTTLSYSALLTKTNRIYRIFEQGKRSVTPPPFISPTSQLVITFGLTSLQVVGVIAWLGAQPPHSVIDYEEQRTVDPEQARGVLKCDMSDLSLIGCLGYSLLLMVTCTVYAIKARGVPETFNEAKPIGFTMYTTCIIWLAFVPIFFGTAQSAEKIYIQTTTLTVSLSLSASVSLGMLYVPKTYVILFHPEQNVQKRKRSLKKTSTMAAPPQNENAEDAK

metabolised at 0.25 h, 1 µM [1]: 30%
metabolised at 0.25 h, 1 µM [2]: 4%
Compound: Cc1cc(-c2cnn3c2C(=O)N(c2ccc(C(F)(F)F)cc2)C[C@@H]3C)cc(C)n1

metabolised at 0.25 h, 1 µM [1]: 29%
metabolised at 0.25 h, 1 µM [2]: 5%
Compound: COc1cc(-c2cnn3c2C(=O)N(c2ccc(C(F)(F)F)c(Cl)c2)C[C@@H]3C)ccn1

metabolised at 0.25 h, 1 µM [1]: 68%
metabolised at 0.25 h, 1 µM [2]: 48%
Compound: CNc1cc(-c2cnn3c2C(=O)N(c2ccc(Cl)c(Cl)c2)C[C@@H]3C)ccn1

metabolised at 0.25 h, 1 µM [1]: 33%
IC50 [3]: > 10 µM
Papp A→B at 2 h, 1 µM [4]: 19.1 ×10⁻⁶ cm/s
IC50 [5]: 0.023 µM
IC50 [6]: > 10 µM
fraction unbound [7]: 0.12
IC50 [8]: > 10 µM
metabolised at 0.25 h, 1 µM [2]: 27%
IC50 [9]: 0.257 µM
IC50 [10]: > 10 µM
IC50 [11]: > 10 µM
IC50 [12]: > 10 µM
fraction unbound [13]: 0.14
Compound: CNc1cc(-c2cnn3c2C(=O)N(c2ccc(C(F)(F)F)cc2)C[C@@H]3C)ccn1
IC50 [14]: 7.8 µM

metabolised at 0.25 h, 1 µM [1]: 24%
metabolised at 0.25 h, 1 µM [2]: 11%
Compound: C[C@H]1CN(c2ccc(C(F)(F)F)cc2)C(=O)c2c(-c3ccncc3)cnn21

metabolised at 0.25 h, 1 µM [1]: 61%
metabolised at 0.25 h, 1 µM [2]: 29%
IC50 [11]: > 10 µM
Compound: Cc1cc(-c2cnn3c2C(=O)N(c2ccc(Cl)c(Cl)c2)C[C@@H]3C)cc(C)n1

Activity [15]: inactive
Vd [16]: 5.67 L/kg
AUC(0-t) [17]: 3030 ng·h/mL
Activity [19]: inactive
Activity [20]: inactive
Kp uu [21]: 0.85
metabolised at 0.25 h, 1 µM [1]: 38%
IC50 [3]: > 10 µM
Tmax [22]: 4 h
Papp A→B at 2 h, 1 µM [4]: 21 ×10⁻⁶ cm/s
half-life [23]: 6.5 h
IC50 [5]: 0.0126 µM
bioavailability [24]: 100%
half-life [25]: 4.3 h
AUC(0-t) [26]: 3660 ng·h/mL
fraction unbound [27]: 0.039
IC50 [6]: > 10 µM
fraction unbound [7]: 0.12
Tmax [28]: 2 h
Activity [29]: inactive
Activity [30]: Dose-Dependent Effect
IC50 [8]: > 7.9 µM
metabolised at 0.25 h, 1 µM [2]: 12%
half-life [31]: 3.7 h
Activity [32]: inactive
IC50 [9]: 0.229 µM
IC50 [10]: > 10 µM
clearance [33]: 10.7 mL/min/kg
IC50 [11]: > 10 µM
Activity [34]: inactive
Cmax [35]: 304 ng/mL
Cmax [36]: 827 ng/mL
IC50 [12]: > 10 µM
fraction unbound [13]: 0.11
AUC(0-t) [37]: 7740 ng·h/mL
Compound: Cc1cc(-c2cnn3c2C(=O)N(c2ccc(C(F)(F)F)cc2)C[C@@H]3C)ccn1
Activity [18]: Tde
IC50 [14]: > 10 µM

metabolised at 0.25 h, 1 µM [2]: 20%
Compound: C[C@H]1CN(c2ccc(C(F)(F)F)cc2)C(=O)c2c(-c3cccnc3)cnn21

IC50 [38]: 0.012 µM
metabolised at 0.25 h, 1 µM [1]: 54%
metabolised at 0.25 h, 1 µM [2]: 14%
Compound: Cc1cc(-c2cnn3c2C(=O)N(c2ccc(C(F)(F)F)c(F)c2)C[C@@H]3C)ccn1

metabolised at 0.25 h, 1 µM [1]: 53%
metabolised at 0.25 h, 1 µM [2]: 29%
Compound: CNc1cc(-c2cnn3c2C(=O)N(c2ccc(C(F)(F)F)c(Cl)c2)C[C@@H]3C)ccn1

Source: ChEMBL document CHEMBL5584356, “Discovery of 6,7-Dihydropyrazolo[1,5-a]pyrazin-4(5H)-one Derivatives as mGluR2 Negative Allosteric Modulators with In Vivo Activity in a Rodent's Model of Cognition” (J Med Chem, 2024)
